Measurements: patent US7291601B1, “Arginine-rich anti-vascular endothelial growth factor peptides that inhibit growth and metastasis of human tumor cells by blocking angiogenesis” (Korea Greencross Corp., priority 1999, dated 2007)
Entries after “also recorded” stand apart in the source; their conditions may differ.

Tests used:
rabbit corneal domes = experiment: Rabbit corneal dome angiogenesis induced by VEGF; assay type: in vivo; conditions: VEGF 10 ng with 1 μg peptide, 16 days after operation; listed as Sequence 1
Protocol: To confirm the test results obtained from egg CAM, an experiment was performed using rabbit corneal domes for in vivo angiogenesis testing. New Zealand male rabbits weighing 3 kg (SLC, Japan) were subjected to intramuscular ketamine anesthesia (44 mg/kg), followed by dissecting the corneal domes to a length of 3 mm by use of an operating knife (Bard-Parker—#11). […] 16 days after the operation, angiogenesis was obviously observed and photographs were taken of blood vessels newly formed in the corneal dome (Nikon, FS-2, Japan).

[1] = test system: HM7 (human colon carcinoma cell line); experiment: Liver metastasis of HM7 cells transplanted into the spleen of nude mice; assay type: in vivo; conditions: control group PBS only
Excerpt: In order to conduct an experiment concerning the metastasis of cancer cells to the liver, cancerous cells were transplanted into the spleen. In this regard, after being anesthetized with diethyl ether, 4-week-old male mice (athymic nude mice, BALB/c/nu/nu, Charles River, Japan) underwent flank incision. […] Four weeks after the injection, the liver was excised from each mouse and measured for weight and the size and number of metastatic nodules formed. Each test group was composed of 6-7 mice. In a student's t-test, a p value less than 0.05 was regarded as being statistically significant. In the test using tetrazolium dye (cell titer 96 Non-radioactive Proliferation Assay Kit, Promega), each peptide was evaluated to have no influence on the growth of the cancer cells (5×10^3 cells/well), so that the possibility that the toxicity of the peptide themselves might inhibit the growth and metastasis of cancer cells could be excluded.

Substance: H-RRKRRR-NH2 [compound 8, NH2-Arg-Arg-Lys-Arg-Arg-Arg-CONH2]
- VEGF-induced angiogenesis in the rabbit corneal dome (rabbit corneal domes): completely inhibited; also recorded: anti-angiogenic effect
- weight of the liver, % of the control group [1]: 33%
- number of metastatic nodules, % of the control group ([1]; liver): 16%
